Earlier results as cited in patent publication US7501533B2, “Process for preparing lysophosphatidylcholine” (Chem SpA, priority 2004, dated 2009).

Tested on: rats
Conditions: from Sax and others, Dangerous Properties of Industrial Materials, edition VII

Row | Structure (SMILES) | LD50 (acute oral toxicity)
1 | CCC[CH2][Sn](=[O])[CH2]CCC [dibutyltin oxide] | LD50 = 44.9 mg/kg
2 | CCCCCCC[CH2][Sn](=[O])[CH2]CCCCCCC [dioctyltin oxide] | LD50 = 2500 mg/kg
